Bridge positions count the residues as written; N and C are the ends. Ends that are not written are not given here. Peptide text beside a SMILES is read from it.
What was measured:
[1] = system: human EDTA-anti-coagulated blood diluted 1∶10; experiment: TNF release assay in stimulated diluted whole blood (ELISA); assay type: cell-based; details: 4 h; for anti-TNF effectiveness relative to RTD-1 / hierarchy of anti-TNF potencies: E. coli-stimulated blood, N = 2
THP-1 monocytic cells = experiment: TNF release assay in LPS-stimulated THP-1 monocytes (ELISA); assay type: cell-based, human; details: 4 h, N = 2; for hierarchy of anti-TNF potencies: THP-1 in RPMI +5% human EDTA-plasma, 1 ng/ml K12 LPS
Procedure: THP-1 monocytic cells (ATCC, Manassas, VA) were grown and maintained in RPMI-1640 medium containing 10% fetal bovine serum and penicillin/streptomycin. Cells were harvested by centrifugation, washed with RPMI-1640 medium and suspended at 5×10^5 cells/ml in fresh medium containing 5% human EDTA plasma.
Peptides (RTDs 1–5, human neutrophil α-defensins) were aliquoted into wells of pyrogen-free 12- or 24-well plates wherein final peptide concentrations were 0–10 µg/ml. Wells were inoculated with 1×10^5 CFU/ml S. aureus or 100 CFU/ml E. coli, or 1–3 ng/ml of E. coli K12 LPS. Samples (5–10 µl) containing peptide or bacteria/LPS were placed on opposite sides of the plate well. Mixing commenced with the addition of 0.5 to 2.0 ml of 1∶10 diluted blood, PBLs (5×10^5/ml), or THP-1 cells (2–5×10^5 cells/ml). Plates were incubated at 37°C in 5% CO2 for 4 h with gentle mixing. […] Incubation mixtures were centrifuged at 200× g for 10 min at 22°C and supernatants were clarified by centrifugation at 23,000× g for 15 min at 4°C. Supernatant TNF was quantified by sandwich ELISA (OptEIA II; BD Biosciences; Hu TNF-α, Invitrogen) per suppliers’ directions, using a SpectraMax Plate Reader.

Compound	anti-TNF effectiveness relative to RTD-1 [1]	hierarchy of anti-TNF potencies [1]	hierarchy of anti-TNF potencies (THP-1 monocytic cells)	effect on stimulated TNF release ([1]; E. coli-stimulated, 0–10 µg/ml peptide)	effect on stimulated TNF release (THP-1 monocytic cells; THP-1, 1 ng/ml K12 LPS)
CC(C)C[C@@H]1NC(=O)[C@@H]2CSSC[C@H](NC(=O)[C@H](CCCNC(=N)N)NC(=O)[C@@H]3CSSC[C@H](NC1=O)C(=O)N[C@@H](CCCNC(=N)N)C(=O)N[C@@H](CCCNC(=N)N)C(=O)NCC(=O)N[C@@H](C(C)C)C(=O)N3)C(=O)N[C@@H](CC(C)C)C(=O)N[C@H]1CSSC[C@H](NC(=O)[C@H](C(C)C)NC(=O)CNC(=O)[C@H](CCCNC(=N)N)NC(=O)[C@H](CCCNC(=N)N)NC1=O)C(=O)N[C@@H](CCCNC(=N)N)C(=O)N2 [RTD-2] (cyclo(CLCRRGVCRCLCRRGVCR); disulfide 1-10, 3-8, 12-17)	substantially more effective than RTD-1	RTD-5>2>1>4>3	RTD-5>2>1>4>3	–	–
CC[C@H](C)[C@@H]1NC(=O)[C@@H]2CSSC[C@H](NC(=O)[C@H](CCCNC(=N)N)NC(=O)[C@@H]3CSSC[C@H](NC1=O)C(=O)N[C@@H]([C@@H](C)O)C(=O)N[C@@H](CCCNC(=N)N)C(=O)NCC(=O)N[C@@H](Cc1ccccc1)C(=O)N3)C(=O)N[C@@H]([C@@H](C)CC)C(=O)N[C@H]1CSSC[C@H](NC(=O)[C@H](Cc3ccccc3)NC(=O)CNC(=O)[C@H](CCCNC(=N)N)NC(=O)[C@H]([C@@H](C)O)NC1=O)C(=O)N[C@@H](CCCNC(=N)N)C(=O)N2 [RTD-3] (cyclo(CICTRGFCRCICTRGFCR); disulfide 1-10, 3-8, 12-17)	less active	RTD-5>2>1>4>3	RTD-5>2>1>4>3	–	–
CC[C@H](C)[C@@H]1NC(=O)CNC(=O)[C@H](CC(C)C)NC(=O)[C@H](C(C)C)NC(=O)[C@@H]2CSSC[C@H](NC1=O)C(=O)N[C@@H](CCCNC(=N)N)C(=O)N[C@H]1CSSC[C@H](NC(=O)[C@H](CCCNC(=N)N)NC(=O)[C@@H]3CSSC[C@H](NC(=O)[C@H]([C@@H](C)CC)NC1=O)C(=O)N[C@@H]([C@@H](C)O)C(=O)N[C@@H](CCCNC(=N)N)C(=O)NCC(=O)N[C@@H](Cc1ccccc1)C(=O)N3)C(=O)N[C@@H]([C@@H](C)CC)C(=O)N2 [RTD-4] (cyclo(CICTRGFCRCICVLGICR); disulfide 1-10, 3-8, 12-17)	less active	RTD-5>2>1>4>3	RTD-5>2>1>4>3	–	–
CC[C@H](C)[C@@H]1NC(=O)CNC(=O)[C@H](CC(C)C)NC(=O)[C@H](C(C)C)NC(=O)[C@@H]2CSSC[C@H](NC1=O)C(=O)N[C@@H](CCCNC(=N)N)C(=O)N[C@H]1CSSC[C@H](NC(=O)[C@H](CCCNC(=N)N)NC(=O)[C@@H]3CSSC[C@H](NC(=O)[C@H]([C@@H](C)CC)NC1=O)C(=O)N[C@@H](CCCNC(=N)N)C(=O)N[C@@H](CCCNC(=N)N)C(=O)NCC(=O)N[C@@H](C(C)C)C(=O)N3)C(=O)N[C@@H]([C@@H](C)CC)C(=O)N2 [RTD-5] (cyclo(CICRRGVCRCICVLGICR); disulfide 1-10, 3-8, 12-17)	substantially more effective than RTD-1	RTD-5>2>1>4>3	RTD-5>2>1>4>3	–	–
HNP-2: human neutrophil α-defensin purified from human neutrophils (CYCRIPACIAGERRYGTCIYQGRLWAFCC; ends and bridges not checked; cysteine pairing not given here; UniProt P59665 66-94, looked up) [reference compound]	–	–	–	no inhibitory effect	no inhibitory effect

— paper PMC3516535, “Rhesus Macaque Theta Defensins Suppress Inflammatory Cytokines and Enhance Survival in Mouse Models of Bacteremic Sepsis” (PLoS ONE, 2012)
